Experimental data as given in ChEMBL document CHEMBL1201862, “PubChem BioAssay data set” (2004).
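Assay format: 96-well plates, 48-hour exposure. The concentration for 50% growth inhibition is given as GI50.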 Activity calls are given as the source filed them. Rule as the data show it: active = GI50 up to about 1.1 µM and inactive = higher.

Columns and labels:
Test in all cases: NCI-60 cell line screen, 48 h
[1] = test system: DLD-1
[2] = test system: RXF 631
[3] = test system: XF498
[4] = test system: HOP-18
[5] = test system: LXFL 529
[6] = test system: DMS-114
[7] = test system: M19-MEL

SMILES	GI50 [1]	GI50 [2]	GI50 [3]	GI50 [4]	GI50 [5]	GI50 [6]	GI50 [7]
COc1cc(OC)c2c(O)cc(CC(C)O)cc2c1 (centres undefined)	> 100 µM (inactive)	> 100 µM (inactive)	> 100 µM (inactive)	> 100 µM (inactive)	> 100 µM (inactive)	> 100 µM (inactive)	> 100 µM (inactive)
NC1=NC(c2ccccc2)CC(c2cc(Cl)cc(Br)c2O)=N1 (centres undefined)	12 µM (inactive)	17.5 µM (inactive)	13.7 µM (inactive)	17.7 µM (inactive)	16.7 µM (inactive)	8.69 µM (inactive)	12.8 µM (inactive)
Cn1cc2ccccc2c1-c1nc(F)nc(Nc2ccc(N)cc2)n1	13 µM (inactive)	18.3 µM (inactive)	12.5 µM (inactive)	–	16 µM (inactive)	17.7 µM (inactive)	11.9 µM (inactive)
C[C@]12CCc3nonc3C1CC[C@@H]1C2CC[C@]2(C)C(=O)CCC12 (some centres undefined)	50 µM (inactive)	57.8 µM (inactive)	17.5 µM (inactive)	> 100 µM (inactive)	35.9 µM (inactive)	22.4 µM (inactive)	25.8 µM (inactive)
COc1cccc2c1C(=O)c1c(O)c3c(c(O)c1C2=O)C[C@@](O)(C(=O)CO)CC3OC1CC(NCCCC(OC(C)=O)OC(C)=O)C(O)C(C)O1 (some centres undefined)	0.0023 µM (active)	< 0.0001 µM (active)	0.00183 µM (active)	0.00413 µM (active)	0.00262 µM (active)	0.00703 µM (active)	0.00261 µM (active)
N=C(NC(=N)Nc1ccc(S(=O)(=O)Nc2cnc3ccccc3n2)cc1)Nc1ccc(Br)cc1	> 100 µM (inactive)	> 100 µM (inactive)	> 100 µM (inactive)	> 100 µM (inactive)	> 100 µM (inactive)	> 100 µM (inactive)	> 100 µM (inactive)
NC(CCCNc1ccc(O)cc1)C(=O)O (centres undefined)	20.4 µM (inactive)	54.3 µM (inactive)	22.5 µM (inactive)	> 76.4 µM (inactive)	18.3 µM (inactive)	24.9 µM (inactive)	18.2 µM (inactive)
O=C(CC(=O)N1N=C(c2ccccc2)C(/N=N/c2ccccc2Cl)C1=O)Nc1ccccc1Cl (centres undefined)	23 µM (inactive)	48.5 µM (inactive)	20.7 µM (inactive)	–	26.2 µM (inactive)	54.1 µM (inactive)	32.2 µM (inactive)
